Entries after “also recorded” stand apart in the source; their conditions may differ.
Experiments:
[1] = type: physicochemical; details: KCN in water; UV spectrum recorded immediately after mixing
[2] = Conversion of the dithiocarbamate disulfide to the monomer by L-cysteine (UV spectrum); type: physicochemical; details: L-cysteine 5 mg/mL in 60 mM HEPES pH 7.4; disulfide 20 μg/mL; UV 190-340 nm
Method: FIG. 2 is an illustration of the UV spectrum of N-methyl-D-glucamine dithiocarbamate disulfide (MGDD) (20 μg/mL)in the presence of L-cysteine (5 mg/mL). The spectrum was recorded with a scan range of 190 nm to 340 nm.
FIG. 10 is an illustration of the UV spectrum measured on Hewlett Packard 8451A Diode Array Spectrophotometer. Scanning wavelength 190 nm-340 nm. One mL freshly prepared solution of L-cysteine (5 mg/mL) in 60 mM HEPES buffer, pH=7.4 is transferred into the UV cell (cell length 1 cm) plus 1 μl acetone and the absorbance of this solution is measured as a background. Added 1 μl stock solution of Pyrrolidine dithiocarbamate disulfide (PDD) in acetone to the cuvette—final concentration of PDD is 20 μg/mL. After mixing the UV spectrum is measured immediately.
A freshly prepared solution of L-cysteine (5 mg/mL) in 60 mM HEPES buffer, pH 7.4 was transferred into a UV cell (cell length 1cm) plus 1 μl acetone and the absorbance of this solution was recorded as background. Immediately after the addition of Pyrrolidine dithiocarbamate disulfide (PDD) (final concentration of 20 μg/mL), the spectrum was recorded with a scan range of 190 nm to 340 nm.

[3] = Stability at pH 1 / stomach acid; type: physicochemical
diabetic-prone BB rats = tested on: diabetic-prone BB rats
Method: FIG. 4 is a graph illustrating the effects of oral administration of L-proline dithiocarbamate on the survival of diabetic-prone BB rats. The percentage of survival was plotted against the age of the animals over 125 days. The treated group (n=30) (▪) received 5 mg/ml monomeric L-proline dithiocarbamate in drinking water, while the untreated group (n=31) (□) received only water.
We tested the effectiveness of the oral administration of (L-PD) for the treatment of diabetic-prone BB rats, an animal model that is widely used for type I insulin-dependent diabetes. Type I diabetes is an autoimmune disease. the pathogenesis of this disease remains unclear although there is ample evidence for increased NO production at early stages of the disease (see, for example, G. M. Piper, Hypertension, 31: 1047-1060, 1998).
Male, diabetic-prone BB rats (n=61, 250-280 g) were used for the study. The rats were distributed between untreated and L-PD treated groups. The treated group received 5 mg/ml L-PD in drinking water. The treatment started when the animals were 2 months old and continued until they were 4 months old. […] Percent survival was calculated by Product-Limit Survival Analysis Generalized Savage (Mantel-Cox) with p<0.01.

Lewis rats = details: 10 mg/ml in drinking water; scored 0-6 from day 6; n=9
Method: The test rats (▪) were given L-PD in drinking water (10 mg/ml). Control rats ([formula]) received only distilled water for drinking. Beginning on day 6, the left foot of the animals was scored for the development of arthritic disease using the following system: 0=no redness or inflammation, 1=one area of redness or inflammation on the foot less than 2 mm in diameter, 3=partial redness/inflammation of the footpad, 4=all of footpad red or inflamed, 5=criteria of 4 plus at least one toe red or inflamed, and 6=criteria of 4 plus toes inflamed and deformed (toes curling under footpad).
After the subcutaneous injection in the right footpad of a suspension in mineral oil of heat killed M. tuberculosis on day 1, the Lewis rats were separated into two groups (n=9); one given L-PD (10 mg/ml) in the drinking water and the other given only distilled water. Beginning on day 6, the left foot of the animals was scored for the development of arthritic disease using the following system: 0=no redness or inflammation, 1=one area of redness or inflammation on the foot less than 2 mm in diameter, 3=partial redness/inflammation of the footpad, 4=all of footpad red or inflamed, 5=criteria of 4 plus at least one toe red or inflame, d, and 6=criteria of 4 plus toes inflamed and deformed (toes curling under footpad).

[4] = cited from earlier work

Compound: S=C(SSC(=S)N1CCCC1)N1CCCC1 [PDD, Pyrrolidine dithiocarbamate disulfide]
- reaction with potassium cyanide [1]: fast reaction
- conversion to the monomeric dithiocarbamate on addition of L-cysteine [2]: readily be converted into its starting material, pyrrolidine dithiocarbamate
- time stable at pH 1 [3]: ≤ 24 hours

Compound: CN(C[C@H](O)[C@@H](O)[C@H](O)[C@H](O)CO)C(=S)SSC(=S)N(C)C[C@H](O)[C@@H](O)[C@H](O)[C@H](O)CO [MGDD, N-methyl-D-glucamine dithiocarbamate disulfide]
- reaction with potassium cyanide [1]: fast reaction
- conversion to the monomeric dithiocarbamate on addition of L-cysteine [2]: readily be converted into its starting material, MGD; also recorded: identical to that of N-methyl-D-glucamine dithiocarbamate

Compound: NC(=S)S.O=C(O)[C@@H]1CCCN1 [L-PD, L-proline dithiocarbamate]
- animals surviving at the end of the experiments (diabetic-prone BB rats; 5 mg/ml in drinking water for 2 months (age 2 to 4 months), untreated 10 percent, p<0.01): more than 30%
- improvement in survival compared to the untreated group (diabetic-prone BB rats; 5 mg/ml in drinking water, n=30, over 125 days): statistically significant
- effect on water consumption (diabetic-prone BB rats; chronic treatment, 5 mg/ml in drinking water): no apparent effect
- severity score of the inflammation in the left footpad (Lewis rats): significantly reduced

Compound: S=C(S)N1CCCC1 [Pyrrolidine dithiocarbamate]
- stability in the presence of stomach acid [4]: breaks down to ineffective species

Source: US6589991B1, “Therapeutic methods employing disulfide derivatives of dithiocarbamates and compositions useful therefor” (Medinox, Inc., priority 1998, dated 2003)
